Data from US4459241A, “Compounds containing quaternary ammonium and methylenephosphonic acid groups” (The Dow Chemical Company, priority 1983, dated 1984).

Assay: scale inhibition test with respect to calcium carbonate (soluble calcium retained, 24 h at 80° C.)
Format: physicochemical
Details: 10 ppm based on active acid, 0.02M CaCl2 + 0.04M sodium bicarbonate/0.96M sodium chloride, 24-hour period, blank 12%
Description: To these solutions is added the candidate inhibitor in various concentrations. Fifty-ml samples of a 0.04M sodium bicarbonate/0.96M sodium chloride solution are then added with stirring. A total hardness determination is made on the mixture by adding excess standard EDTA to a sample and back titrating with standard Mg^++ solution in the presence of Eriochrome Black T indicator. The samples are placed in an 80° C. oven and 10-ml samples taken periodically from each bottle, filtered through a millipore filter, and the total hardness of the filtrates determined by titration. A blank with no inhibitor is run in an identical manner. The relative inhibition effects are shown by determining the amount of hardness (as soluble calcium) before and after heating for a 24-hour period. The amount of soluble calcium as a percent of that originally present is indicated as % inhibition.
All products and comparative runs were made using a concentration of 10 ppm based on active acid.

## C[N+](C)(C)CC(O)CN(CCN(CP(=O)(O)O)CP(=O)(O)O)CP(=O)(O)O (stereo not shown) [Product Ex. 1]
  % Inhibition (amount of soluble calcium as a percent of that originally present): 41.8%
